In ChEMBL document CHEMBL2440069, “Synthesis and biological evaluation of direct thrombin inhibitors bearing 4-(piperidin-1-yl)pyridine at the P1 position with potent anticoagulant activity” (J Med Chem, 2013):

Columns and labels:
[1] = molecular target: Prothrombin (Bos taurus, UniProt P00735); assay: Inhibition of bovine thrombin using D-Phe-Pip-Arg-p-NA as substrate by chromogenic assay; conditions: read-out: Ki
[2] = molecular target: Coagulation factor X (Homo sapiens, UniProt P00742); assay: Inhibition of human factor 10a using Z-D-Arg-Gly-Arg-p-NA as substrate by chromogenic assay
[3] = test system: Plasma; assay: Anticoagulant activity in human plasma assessed as concentration required to double activated […] time; type: functional
[4] = molecular target: Chymotrypsinogen A (Bos taurus, UniProt P00766); assay: Inhibition of bovine alpha-chymotrypsin using N-succinyl-Ala-Ala-Pro-Phe-p-NA as substrate by chromogenic assay
[5] = Dissociation constant, pKa of the compound by potentiometric titration; type: physicochemical
[6] = molecular target: T1, Coagulation factor VII (Homo sapiens, UniProt P08709); assay: Inhibition of human recombinant factor 7a using spectrozyme as substrate by chromogenic assay
T1 sequence (P08709 whole entry): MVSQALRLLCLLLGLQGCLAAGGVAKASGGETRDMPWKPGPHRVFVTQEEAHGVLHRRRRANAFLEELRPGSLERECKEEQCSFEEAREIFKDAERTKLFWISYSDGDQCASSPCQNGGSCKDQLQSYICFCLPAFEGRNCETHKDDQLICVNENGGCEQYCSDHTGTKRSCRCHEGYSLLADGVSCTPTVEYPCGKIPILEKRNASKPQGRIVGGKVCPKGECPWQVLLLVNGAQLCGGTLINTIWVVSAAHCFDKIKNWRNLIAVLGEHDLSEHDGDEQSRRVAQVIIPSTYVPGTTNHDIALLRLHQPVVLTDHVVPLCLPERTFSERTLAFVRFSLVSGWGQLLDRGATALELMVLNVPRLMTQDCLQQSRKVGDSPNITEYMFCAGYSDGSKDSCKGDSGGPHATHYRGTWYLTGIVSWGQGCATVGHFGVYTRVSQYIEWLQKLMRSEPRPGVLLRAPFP

[7] = molecular target: Prothrombin (Homo sapiens, UniProt P00734); assay: Inhibition of human thrombin using D-Phe-Pip-Arg-p-NA as substrate by chromogenic assay
[8] = Inhibition of bovine pancreatic trypsin using D-Phe-Pip-Arg-p-NA as substrate by chromogenic assay; set-up: species or system Bos taurus
[9] = molecular target: T2, Neutrophil elastase (Homo sapiens, UniProt P08246); assay: Inhibition of human neutrophil leukocyte elastase using N-(methoxysuccinyl)-Ala-Ala-Pro-Val-p-NA as substrate by chromogenic assay
T2 sequence (P08246 whole entry): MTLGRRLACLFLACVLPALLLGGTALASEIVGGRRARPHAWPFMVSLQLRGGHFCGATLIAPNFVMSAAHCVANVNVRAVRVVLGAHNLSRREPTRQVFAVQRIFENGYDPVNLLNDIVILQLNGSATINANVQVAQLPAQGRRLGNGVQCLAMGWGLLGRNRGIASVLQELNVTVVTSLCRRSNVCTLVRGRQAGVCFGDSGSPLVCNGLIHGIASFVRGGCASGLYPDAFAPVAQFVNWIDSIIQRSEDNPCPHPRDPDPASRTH

[10] = 1-octanol-water partition coefficient, log P of the neutral form compound by HILIC analysis; type: physicochemical
[11] = 1-octanol-water partition coefficient, log D of the compound; type: physicochemical
[12] = test system: Mus musculus; assay: Ex vivo anticoagulant activity in CD1 mouse plasma assessed as activated partial thromboplastin time at 100 mg/kg, po after 1 hr; type: functional
[13] = test system: Mus musculus; assay: Ex vivo anticoagulant activity in CD1 mouse plasma assessed as activated partial thromboplastin time at 100 mg/kg, po after 2 hrs; type: functional
[14] = Permeability of the compound at pH 6.8 by PAMPA assay; type: ADME
[15] = Permeability of the compound at pH 8 by PAMPA assay; type: ADME

Chain of Coagulation factor X (P00742 41-179 limits assumed): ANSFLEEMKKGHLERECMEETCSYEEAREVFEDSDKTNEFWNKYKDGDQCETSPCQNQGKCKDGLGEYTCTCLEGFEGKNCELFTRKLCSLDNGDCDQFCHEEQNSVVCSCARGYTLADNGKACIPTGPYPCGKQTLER
Chain of Coagulation factor X (P00742 235-488 limits assumed): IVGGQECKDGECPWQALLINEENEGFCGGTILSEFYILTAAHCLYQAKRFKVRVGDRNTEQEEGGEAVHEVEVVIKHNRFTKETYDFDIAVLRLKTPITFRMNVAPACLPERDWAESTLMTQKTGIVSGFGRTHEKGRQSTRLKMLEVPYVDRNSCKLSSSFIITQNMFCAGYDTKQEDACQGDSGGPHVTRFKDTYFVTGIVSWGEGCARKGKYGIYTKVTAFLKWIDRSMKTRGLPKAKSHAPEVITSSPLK

O=C(Nc1cccc(OCc2cccc([N+](=O)[O-])c2)c1)C1CCN(c2ccncc2)CC1
Ki [1]: 26.8 µM | Ki [2]: 6.73 µM

O=C(Nc1cccc(OCc2ccc([N+](=O)[O-])cc2)c1)C1CCN(c2ccncc2)CC1
Ki [1]: 5.85 µM | Ki [2]: 6 µM

O=C(Nc1cccc(OCc2cccc(Br)c2)c1)C1CCN(c2ccncc2)CC1
Ki [1]: 20.9 µM | Ki [2]: 6.31 µM

O=C(Nc1cccc(OCc2ccc(Br)cc2)c1)C1CCN(c2ccncc2)CC1
Ki [1]: 2.03 µM | Ki [2]: 37.1 µM

O=C(Nc1cccc(OCc2ccc(Cl)cc2)c1)C1CCN(c2ccncc2)CC1
Ki [1]: 0.26 µM | Ki [2]: 29.6 µM

O=C(Nc1cccc(OCc2cccc(Cl)c2)c1)C1CCN(c2ccncc2)CC1
Ki [1]: 0.156 µM | Ki [2]: > 250 µM

O=C(Nc1cccc(OCc2cc(F)cc(F)c2)c1)C1CCN(c2ccncc2)CC1
2aPTT [3]: 26.3 µM | Ki [4]: 31.4 µM | Ki [1]: 0.063 µM | pKa [5]: 9.2 | Ki [6]: > 250 µM | Ki [2]: 27 µM | Ki [7]: 0.031 µM | Ki [8]: > 250 µM | Ki [9]: > 250 µM | logP [10]: 5.2

O=C(Nc1cccc(OCc2ccccc2F)c1)C1CCN(c2ccncc2)CC1
2aPTT [3]: 19.8 µM | Ki [4]: 71.6 µM | Ki [1]: 0.064 µM | pKa [5]: 9.2 | Ki [6]: > 250 µM | Ki [2]: 6.83 µM | Ki [7]: 0.09 µM | Ki [8]: 27 µM | Ki [9]: > 250 µM | logP [10]: 4.9

O=C(Nc1cccc(OCc2ccc(F)cc2F)c1)C1CCN(c2ccncc2)CC1
Ki [1]: 4.64 µM | Ki [2]: 8.8 µM

O=C(Nc1cccc(OCc2cccc(F)c2)c1)C1CCN(c2ccncc2)CC1
2aPTT [3]: 6.6 µM | Ki [4]: 6.6 µM | logD [11]: 3.14 | Activity [12]: 36% | Ki [1]: 0.006 µM | Activity [13]: 43% | pKa [5]: 9 | Ki [6]: > 250 µM | Ki [7]: 0.016 µM | Ki [8]: > 250 µM | Ki [9]: 11.3 µM | logP [10]: 5

O=C(Nc1cccc(OCc2ccc(F)cc2)c1)C1CCN(c2ccncc2)CC1
2aPTT [3]: 59 µM | Ki [4]: 71.6 µM | pKa [5]: 8.9 | Ki [6]: > 250 µM | Ki [7]: 0.014 µM | Ki [8]: > 250 µM | Ki [9]: 68.7 µM | logP [10]: 5.1

Nc1ccc(N2CCC(C(=O)Nc3cccc(OCc4ccc(F)cc4)c3)CC2)cc1
Ki [1]: > 250 µM | pKa [5]: 3 | Ki [2]: 63.5 µM

O=C(Nc1cccc(OCc2ccccc2)c1)C1CCN(c2ccncc2)CC1
Ki [1]: 39.5 µM | Ki [2]: 7.46 µM

O=C(Nc1cccc(OCc2ccc(F)cc2)c1)C1CCN(c2ccccn2)CC1
Ki [1]: > 250 µM | pKa [5]: 8.5 | Ki [2]: 78 µM

O=C(Nc1cccc(OCc2ccc(F)cc2)c1)C1CCN(c2ncccn2)CC1
log Pe [14]: impermeable | Ki [1]: 26.8 µM | pKa [5]: 6 | Ki [2]: 91.6 µM | log Pe [15]: impermeable

CC(C)N1CCC(C(=O)Nc2cccc(OCc3ccc(F)cc3)c2)CC1
Ki [1]: > 250 µM | pKa [5]: 9.4 | Ki [2]: > 250 µM

O=C(Nc1cccc(OCc2ccc(F)cc2)c1)C1CCN(Cc2ccncc2)CC1
log Pe [14]: impermeable | Ki [1]: 15.3 µM | pKa [5]: 3.3 | Ki [2]: 47.1 µM | log Pe [15]: impermeable

CC(=N)N1CCC(C(=O)Nc2cccc(OCc3ccc(F)cc3)c2)CC1
Ki [1]: > 250 µM | Ki [2]: 57.3 µM

O=C(Nc1cccc(OCc2ccc(F)cc2)c1)C1CCNCC1
pKa [5]: 9.8
